# According to PMC6927578 (Archiv der Pharmazie, 2016):
# Where two headings read alike, the source gives them in different places.
# Assays:
# [1] = system: HDAC activity from HeLa cell lysates; experiment: Fluor de Lys in vitro fluorescence HDAC activity assay with HeLa cell lysates; type: biochemical, human; settings: for % activity remaining / IC50: HeLa cell lysates; for % activity remaining: 250 μM compound; for IC50: mean of three trials with standard error; for fold reduced potency compared to SAHA: HeLa cell lysates IC50 ratio
# [2] = Solubility observed in the HDAC assay; type: physicochemical; settings: assay conditions; prevented testing above 250 μM
# HDAC1 = HDAC1 (Homo sapiens, UniProt Q13547); experiment: Fluor de Lys HDAC isoform assay, HDAC1; settings: for isoform selectivity among HDAC1, 3 and 6: 125 μM single concentration screen (Fig. 2)
# HDAC3 = HDAC3 (Homo sapiens, UniProt O15379); experiment: Fluor de Lys HDAC isoform assay, HDAC3
# HDAC6 = target: T1, HDAC6 (Homo sapiens, UniProt Q9UBN7); experiment: Fluor de Lys HDAC isoform assay, HDAC6
# T1 sequence (Q9UBN7 1-1215): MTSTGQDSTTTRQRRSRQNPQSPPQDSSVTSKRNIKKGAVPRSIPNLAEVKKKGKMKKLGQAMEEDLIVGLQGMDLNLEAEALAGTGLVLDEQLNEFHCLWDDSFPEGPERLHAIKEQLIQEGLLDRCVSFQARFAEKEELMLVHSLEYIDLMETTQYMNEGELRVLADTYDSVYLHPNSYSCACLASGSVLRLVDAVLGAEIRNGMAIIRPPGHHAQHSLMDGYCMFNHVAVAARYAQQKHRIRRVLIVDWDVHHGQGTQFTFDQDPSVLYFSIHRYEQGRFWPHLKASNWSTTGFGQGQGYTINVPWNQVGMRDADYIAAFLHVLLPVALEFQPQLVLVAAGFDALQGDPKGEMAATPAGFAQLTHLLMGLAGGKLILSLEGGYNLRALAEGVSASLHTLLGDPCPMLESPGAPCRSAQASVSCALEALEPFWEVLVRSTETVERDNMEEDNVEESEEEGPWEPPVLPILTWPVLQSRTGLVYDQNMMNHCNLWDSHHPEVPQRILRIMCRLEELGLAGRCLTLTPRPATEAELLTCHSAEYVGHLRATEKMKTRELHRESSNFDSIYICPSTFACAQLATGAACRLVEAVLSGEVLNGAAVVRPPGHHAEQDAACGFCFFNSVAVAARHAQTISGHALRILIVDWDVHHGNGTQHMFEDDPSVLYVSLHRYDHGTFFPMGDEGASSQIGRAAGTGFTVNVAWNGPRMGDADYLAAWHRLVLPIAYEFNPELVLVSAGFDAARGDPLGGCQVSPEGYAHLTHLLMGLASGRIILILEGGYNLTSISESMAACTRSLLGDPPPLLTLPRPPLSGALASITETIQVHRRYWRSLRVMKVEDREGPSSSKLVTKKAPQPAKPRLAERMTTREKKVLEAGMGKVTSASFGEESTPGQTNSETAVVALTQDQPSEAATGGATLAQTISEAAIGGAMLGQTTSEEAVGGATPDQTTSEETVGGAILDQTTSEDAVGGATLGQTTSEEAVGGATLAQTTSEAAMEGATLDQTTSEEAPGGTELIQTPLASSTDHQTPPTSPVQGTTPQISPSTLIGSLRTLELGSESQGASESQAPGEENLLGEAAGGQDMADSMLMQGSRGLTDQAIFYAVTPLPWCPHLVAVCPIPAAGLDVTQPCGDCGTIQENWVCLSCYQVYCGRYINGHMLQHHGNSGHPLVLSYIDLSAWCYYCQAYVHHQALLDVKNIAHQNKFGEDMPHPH
# [3] = 125 μM single concentration screen
# Chain of HDAC1 (Q13547 whole entry, canonical isoform): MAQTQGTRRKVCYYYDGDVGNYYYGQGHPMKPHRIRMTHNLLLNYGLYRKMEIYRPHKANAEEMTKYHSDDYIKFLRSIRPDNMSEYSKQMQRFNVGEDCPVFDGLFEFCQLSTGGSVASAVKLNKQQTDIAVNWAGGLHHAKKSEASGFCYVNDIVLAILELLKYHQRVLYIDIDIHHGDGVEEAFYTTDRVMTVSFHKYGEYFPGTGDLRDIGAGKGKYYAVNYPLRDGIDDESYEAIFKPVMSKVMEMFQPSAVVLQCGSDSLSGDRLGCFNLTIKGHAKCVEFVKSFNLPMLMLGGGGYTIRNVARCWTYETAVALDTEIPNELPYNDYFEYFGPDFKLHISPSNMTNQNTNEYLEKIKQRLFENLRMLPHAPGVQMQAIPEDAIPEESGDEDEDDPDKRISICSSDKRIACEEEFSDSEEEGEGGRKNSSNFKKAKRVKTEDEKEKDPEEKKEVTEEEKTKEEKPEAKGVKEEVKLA
# Chain of HDAC3 (O15379 whole entry, canonical isoform): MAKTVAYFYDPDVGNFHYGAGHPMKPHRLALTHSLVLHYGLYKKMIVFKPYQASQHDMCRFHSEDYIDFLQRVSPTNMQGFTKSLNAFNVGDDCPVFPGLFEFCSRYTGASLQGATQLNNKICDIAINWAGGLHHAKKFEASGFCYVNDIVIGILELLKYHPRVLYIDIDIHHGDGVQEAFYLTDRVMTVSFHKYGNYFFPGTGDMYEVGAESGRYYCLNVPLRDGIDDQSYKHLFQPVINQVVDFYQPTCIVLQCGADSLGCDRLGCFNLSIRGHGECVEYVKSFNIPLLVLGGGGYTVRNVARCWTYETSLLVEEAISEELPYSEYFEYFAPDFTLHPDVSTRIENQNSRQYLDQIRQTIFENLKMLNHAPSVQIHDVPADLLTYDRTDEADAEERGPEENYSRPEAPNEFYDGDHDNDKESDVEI
# Chain of HDAC3 (Q9Y618 395-489 partner limits assumed): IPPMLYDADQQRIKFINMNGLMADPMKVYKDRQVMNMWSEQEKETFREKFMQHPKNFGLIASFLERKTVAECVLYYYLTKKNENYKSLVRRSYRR
SMILES,% activity remaining [1],IC50 [1],solubility [2],"isoform selectivity among HDAC1, 3 and 6 (HDAC1)",fold reduced potency compared to SAHA [1],IC50 (HDAC1),preference for HDAC1 versus HDAC3 (HDAC1; ratio of IC50 values),IC50 (HDAC3),IC50 (HDAC6),"activity remaining, HDAC1 (HDAC1; [3])","IC50 (HDAC1; read-out: IC50 HDAC1, mean of at least three trials with standard error)",inhibition of HDAC3 (HDAC3; [3]),inhibition of HDAC6 (HDAC6; [3])
"O=C(CCCCCCC(=O)N(O)CCc1ccccc1)Nc1ccccc1 [Compound 2d, N^1-hydroxy-N^1-phenethyl-N^8-phenyloctanediamide]",80 ± 2% activity at 250 μM^b),> 500 µM,low solubility at high concentrations,roughly similar potency against the isoforms,,,,,,,,,
"CCCCCN(O)C(=O)CCCCCCC(=O)Nc1ccccc1 [Compound 2b, N^1-pentyl-N^1-hydroxy-N^8-phenyloctanediamide]",,153 ± 14 µM,,little to no isoform selectivity,1700 fold,,,,,,,,
"CN(O)C(=O)CCCCCCC(=O)Nc1ccccc1 [Compound 2a, N^1-hydroxy-N^1-methyl-N^8-phenyloctanediamide]",,794 ± 41 µM,,little to no isoform selectivity,> 8800 fold,,,,,,,,
"O=C(CCCCCCC(=O)N(O)Cc1ccccc1)Nc1ccccc1 [Compound 2c, N^1-benzyl-N^1-hydroxy-N^8-phenyloctanediamide]",,293 ± 32 µM,,preferential HDAC1 inhibition,,177 ± 21 µM,2.5 fold,440 ± 23 µM,287 ± 9 µM,,,,
"O=C(CCCCCCC(=O)N(O)Cc1ccc(-c2ccccc2)cc1)Nc1ccccc1 [Compound 2e, N^1-(biphenyl-4-methyl)-N^1-hydroxy-N^8-phenyloctanediamide]",101 ± 1% activity with 250 μM^b),> 500 µM,low solubility at high concentrations,preferential HDAC1 inhibition,,,,,,58±2%,233 ± 40 µM,statistically insignificant inhibition,statistically insignificant inhibition
